Data reported in ChEMBL document CHEMBL3351767, “The discovery of Polo-like kinase 4 inhibitors: design and optimization of spiro[cyclopropane-1,3'[3H]indol]-2'(1'H).ones as orally bioavailable antitumor agents” (J Med Chem, 2015).
≈ marks a conversion by molar mass, not a printed value.

What was measured:
MCF7 = assay: Cytotoxicity against human MCF7 cells after 5 days by SRB assay; type: functional; conditions: MCF7, 120 h
[1] = AUC in SCID mouse at 50 mg/kg, ip after 8 hrs by LCMS/MS method; type: ADME, organism-based; set-up: time < 8 hr, dose 50 mg/kg, route intraperitoneal; conditions: plasma
Cytochrome P450 3A4 = Cytochrome P450 3A4 (Homo sapiens, UniProt P08684); assay: Inhibition of CYP3A4 (unknown origin) using BFC substrate after 30 mins by fluorescence assay; type: ADME
Chain of Cytochrome P450 3A4 (P08684 whole entry, the tested form may be a part): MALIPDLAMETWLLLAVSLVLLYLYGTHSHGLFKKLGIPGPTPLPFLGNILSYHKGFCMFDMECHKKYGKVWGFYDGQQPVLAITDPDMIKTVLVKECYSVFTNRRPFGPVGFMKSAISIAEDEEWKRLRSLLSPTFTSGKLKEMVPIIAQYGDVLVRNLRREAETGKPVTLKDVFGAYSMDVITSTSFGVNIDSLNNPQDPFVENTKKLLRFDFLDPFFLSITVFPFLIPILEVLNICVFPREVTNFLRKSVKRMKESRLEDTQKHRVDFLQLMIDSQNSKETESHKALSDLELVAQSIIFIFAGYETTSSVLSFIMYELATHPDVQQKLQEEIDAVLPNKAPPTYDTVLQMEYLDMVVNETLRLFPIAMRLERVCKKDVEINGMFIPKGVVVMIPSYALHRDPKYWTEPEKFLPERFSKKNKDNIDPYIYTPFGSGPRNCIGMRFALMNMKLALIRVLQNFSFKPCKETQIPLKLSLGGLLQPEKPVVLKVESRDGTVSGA

[2] = molecular target: T1, Serine/threonine-protein kinase PLK4 (Homo sapiens, UniProt O00444); assay: Inhibition of human N-terminal GST-tagged PLK4 (1 to 391 residues) expressed in Escherichia coli incubated for 30 mins by ELISA method
T1 sequence (O00444 whole entry): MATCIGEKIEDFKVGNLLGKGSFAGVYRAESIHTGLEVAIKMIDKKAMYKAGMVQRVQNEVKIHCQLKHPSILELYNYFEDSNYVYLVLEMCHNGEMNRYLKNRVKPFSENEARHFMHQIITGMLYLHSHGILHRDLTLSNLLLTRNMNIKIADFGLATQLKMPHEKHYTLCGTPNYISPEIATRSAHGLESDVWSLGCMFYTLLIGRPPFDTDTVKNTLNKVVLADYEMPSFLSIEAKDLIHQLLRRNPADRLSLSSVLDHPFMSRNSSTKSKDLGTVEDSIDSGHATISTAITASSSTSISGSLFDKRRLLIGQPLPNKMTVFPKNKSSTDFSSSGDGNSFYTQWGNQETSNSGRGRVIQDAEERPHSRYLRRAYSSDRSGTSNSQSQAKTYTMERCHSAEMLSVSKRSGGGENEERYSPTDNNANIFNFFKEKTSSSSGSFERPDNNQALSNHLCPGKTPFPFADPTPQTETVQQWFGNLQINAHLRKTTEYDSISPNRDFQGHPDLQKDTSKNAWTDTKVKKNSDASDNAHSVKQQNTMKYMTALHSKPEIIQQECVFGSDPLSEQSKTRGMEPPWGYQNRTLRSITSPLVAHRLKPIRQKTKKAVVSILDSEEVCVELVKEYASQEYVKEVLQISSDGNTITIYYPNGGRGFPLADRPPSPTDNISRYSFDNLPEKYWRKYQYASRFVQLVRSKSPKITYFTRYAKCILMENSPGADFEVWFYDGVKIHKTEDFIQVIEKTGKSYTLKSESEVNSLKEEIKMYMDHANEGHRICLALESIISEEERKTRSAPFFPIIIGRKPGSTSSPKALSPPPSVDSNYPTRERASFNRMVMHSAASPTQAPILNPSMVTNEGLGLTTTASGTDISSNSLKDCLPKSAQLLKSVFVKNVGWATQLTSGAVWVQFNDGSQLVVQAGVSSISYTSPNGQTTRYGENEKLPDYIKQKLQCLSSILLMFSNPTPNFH

[3] = Aqueous solubility at pH 7.4; type: physicochemical; conditions: buffer
MDA-MB-468 = assay: Cytotoxicity against human MDA-MB-468 cells after 5 days by SRB assay; type: functional; conditions: MDA-MB-468, 120 h
[4] = Half life in human liver microsomes at 1 uM in presence of NADPH by LC-MS method; type: ADME
CYP1A2 = molecular target: T2, CYP1A2 (Homo sapiens, UniProt P05177); assay: (§1) Inhibition of CYP1A2 (unknown origin) using CEC substrate after 15 mins by fluorescence assay; type: ADME; conditions: probe CEC
T2 sequence (P05177 whole entry): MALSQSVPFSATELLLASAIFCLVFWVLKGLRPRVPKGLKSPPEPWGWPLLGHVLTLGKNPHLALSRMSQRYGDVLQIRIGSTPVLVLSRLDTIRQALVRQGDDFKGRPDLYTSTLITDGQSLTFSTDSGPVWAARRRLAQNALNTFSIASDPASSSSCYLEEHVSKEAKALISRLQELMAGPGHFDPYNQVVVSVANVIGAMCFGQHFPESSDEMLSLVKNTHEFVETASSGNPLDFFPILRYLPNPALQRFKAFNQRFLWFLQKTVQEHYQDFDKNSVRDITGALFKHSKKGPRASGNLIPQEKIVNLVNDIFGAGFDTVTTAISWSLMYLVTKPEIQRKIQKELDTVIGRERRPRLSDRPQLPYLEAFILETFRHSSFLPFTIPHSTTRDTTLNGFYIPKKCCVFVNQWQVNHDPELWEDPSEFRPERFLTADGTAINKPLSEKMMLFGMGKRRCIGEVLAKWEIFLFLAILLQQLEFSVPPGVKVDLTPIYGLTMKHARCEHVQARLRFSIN

[5] = Half life in mouse liver microsomes at 1 uM in presence of NADPH by LC-MS method; type: ADME
[6] = Cmax in SCID mouse at 50 mg/kg, ip after 8 hrs by LCMS/MS method; type: ADME, organism-based; set-up: dose 50 mg/kg, route intraperitoneal; conditions: in vivo
[7] = molecular target: T3, Receptor-type tyrosine-protein kinase FLT3 (Homo sapiens, UniProt P36888); assay: Inhibition of FLT3 (unknown origin) by FRET-based homogeneous assay
T3 sequence (P36888 whole entry): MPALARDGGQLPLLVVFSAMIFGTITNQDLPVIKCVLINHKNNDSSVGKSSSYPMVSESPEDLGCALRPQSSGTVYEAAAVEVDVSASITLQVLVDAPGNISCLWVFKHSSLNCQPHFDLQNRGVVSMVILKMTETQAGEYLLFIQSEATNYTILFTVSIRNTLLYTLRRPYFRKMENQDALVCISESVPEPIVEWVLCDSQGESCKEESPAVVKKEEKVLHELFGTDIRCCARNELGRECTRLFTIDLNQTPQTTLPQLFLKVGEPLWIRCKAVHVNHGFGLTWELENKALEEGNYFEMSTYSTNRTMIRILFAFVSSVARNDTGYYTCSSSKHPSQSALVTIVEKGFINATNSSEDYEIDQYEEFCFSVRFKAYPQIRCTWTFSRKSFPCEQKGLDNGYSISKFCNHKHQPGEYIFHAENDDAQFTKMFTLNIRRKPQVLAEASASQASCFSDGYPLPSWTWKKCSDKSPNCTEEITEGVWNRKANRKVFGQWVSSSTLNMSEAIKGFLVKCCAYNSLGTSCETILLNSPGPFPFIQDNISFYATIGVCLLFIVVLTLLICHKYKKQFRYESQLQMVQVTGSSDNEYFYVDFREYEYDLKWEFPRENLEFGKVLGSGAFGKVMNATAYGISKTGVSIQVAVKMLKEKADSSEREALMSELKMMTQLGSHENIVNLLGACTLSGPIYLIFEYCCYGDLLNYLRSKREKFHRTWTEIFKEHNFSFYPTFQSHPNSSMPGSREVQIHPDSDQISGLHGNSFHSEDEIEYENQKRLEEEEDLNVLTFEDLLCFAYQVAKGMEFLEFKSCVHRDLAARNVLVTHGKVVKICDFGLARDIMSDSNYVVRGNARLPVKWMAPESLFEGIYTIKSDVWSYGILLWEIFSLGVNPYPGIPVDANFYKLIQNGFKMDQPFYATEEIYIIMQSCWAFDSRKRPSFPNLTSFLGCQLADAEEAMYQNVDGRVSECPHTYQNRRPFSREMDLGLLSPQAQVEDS

Cytochrome P450 2C9 = Cytochrome P450 2C9 (Homo sapiens, UniProt P11712); assay: Inhibition of CYP2C9 (unknown origin) using MFC substrate after 45 mins by fluorescence assay; type: ADME
Chain of Cytochrome P450 2C9 (P11712 whole entry): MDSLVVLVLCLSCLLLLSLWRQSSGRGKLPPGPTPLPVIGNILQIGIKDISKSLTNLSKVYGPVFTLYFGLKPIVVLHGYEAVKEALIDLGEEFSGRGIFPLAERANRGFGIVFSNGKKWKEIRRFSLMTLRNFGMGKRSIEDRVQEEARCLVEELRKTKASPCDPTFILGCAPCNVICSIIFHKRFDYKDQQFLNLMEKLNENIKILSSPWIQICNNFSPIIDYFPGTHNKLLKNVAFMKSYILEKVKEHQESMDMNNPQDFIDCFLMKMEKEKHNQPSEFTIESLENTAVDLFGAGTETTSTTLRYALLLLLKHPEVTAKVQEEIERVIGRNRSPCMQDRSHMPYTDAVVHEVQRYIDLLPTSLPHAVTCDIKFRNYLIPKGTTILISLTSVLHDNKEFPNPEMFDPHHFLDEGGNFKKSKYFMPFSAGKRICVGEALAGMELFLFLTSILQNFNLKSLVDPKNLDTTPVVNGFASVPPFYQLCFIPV

[8] = Protein binding in plasma (unknown origin); type: ADME, cell-free; conditions: read-out: PPB (converted)
Cytochrome P450 2D6 = Cytochrome P450 2D6 (Homo sapiens, UniProt P10635); assay: Inhibition of CYP2D6 (unknown origin) using AMMC substrate after 45 mins by fluorescence assay; type: ADME
Chain of Cytochrome P450 2D6 (P10635 whole entry): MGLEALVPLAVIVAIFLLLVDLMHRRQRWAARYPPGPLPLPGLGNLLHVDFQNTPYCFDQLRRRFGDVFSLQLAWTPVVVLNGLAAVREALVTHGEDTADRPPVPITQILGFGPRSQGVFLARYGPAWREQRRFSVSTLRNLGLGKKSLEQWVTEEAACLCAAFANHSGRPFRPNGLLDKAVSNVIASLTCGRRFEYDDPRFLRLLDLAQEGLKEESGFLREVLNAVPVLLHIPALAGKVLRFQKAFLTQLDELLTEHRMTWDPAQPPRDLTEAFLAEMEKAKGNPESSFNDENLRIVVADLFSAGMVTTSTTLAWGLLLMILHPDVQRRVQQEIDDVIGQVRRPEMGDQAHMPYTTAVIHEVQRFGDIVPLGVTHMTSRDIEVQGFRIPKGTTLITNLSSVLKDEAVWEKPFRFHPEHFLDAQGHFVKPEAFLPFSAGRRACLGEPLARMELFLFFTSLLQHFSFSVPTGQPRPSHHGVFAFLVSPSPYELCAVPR

[9] = molecular target: Vascular endothelial growth factor receptor 2 (Homo sapiens, UniProt P35968); assay: Inhibition of KDR (unknown origin) by FRET-based homogeneous assay
Chain of Vascular endothelial growth factor receptor 2 (P35968 whole entry): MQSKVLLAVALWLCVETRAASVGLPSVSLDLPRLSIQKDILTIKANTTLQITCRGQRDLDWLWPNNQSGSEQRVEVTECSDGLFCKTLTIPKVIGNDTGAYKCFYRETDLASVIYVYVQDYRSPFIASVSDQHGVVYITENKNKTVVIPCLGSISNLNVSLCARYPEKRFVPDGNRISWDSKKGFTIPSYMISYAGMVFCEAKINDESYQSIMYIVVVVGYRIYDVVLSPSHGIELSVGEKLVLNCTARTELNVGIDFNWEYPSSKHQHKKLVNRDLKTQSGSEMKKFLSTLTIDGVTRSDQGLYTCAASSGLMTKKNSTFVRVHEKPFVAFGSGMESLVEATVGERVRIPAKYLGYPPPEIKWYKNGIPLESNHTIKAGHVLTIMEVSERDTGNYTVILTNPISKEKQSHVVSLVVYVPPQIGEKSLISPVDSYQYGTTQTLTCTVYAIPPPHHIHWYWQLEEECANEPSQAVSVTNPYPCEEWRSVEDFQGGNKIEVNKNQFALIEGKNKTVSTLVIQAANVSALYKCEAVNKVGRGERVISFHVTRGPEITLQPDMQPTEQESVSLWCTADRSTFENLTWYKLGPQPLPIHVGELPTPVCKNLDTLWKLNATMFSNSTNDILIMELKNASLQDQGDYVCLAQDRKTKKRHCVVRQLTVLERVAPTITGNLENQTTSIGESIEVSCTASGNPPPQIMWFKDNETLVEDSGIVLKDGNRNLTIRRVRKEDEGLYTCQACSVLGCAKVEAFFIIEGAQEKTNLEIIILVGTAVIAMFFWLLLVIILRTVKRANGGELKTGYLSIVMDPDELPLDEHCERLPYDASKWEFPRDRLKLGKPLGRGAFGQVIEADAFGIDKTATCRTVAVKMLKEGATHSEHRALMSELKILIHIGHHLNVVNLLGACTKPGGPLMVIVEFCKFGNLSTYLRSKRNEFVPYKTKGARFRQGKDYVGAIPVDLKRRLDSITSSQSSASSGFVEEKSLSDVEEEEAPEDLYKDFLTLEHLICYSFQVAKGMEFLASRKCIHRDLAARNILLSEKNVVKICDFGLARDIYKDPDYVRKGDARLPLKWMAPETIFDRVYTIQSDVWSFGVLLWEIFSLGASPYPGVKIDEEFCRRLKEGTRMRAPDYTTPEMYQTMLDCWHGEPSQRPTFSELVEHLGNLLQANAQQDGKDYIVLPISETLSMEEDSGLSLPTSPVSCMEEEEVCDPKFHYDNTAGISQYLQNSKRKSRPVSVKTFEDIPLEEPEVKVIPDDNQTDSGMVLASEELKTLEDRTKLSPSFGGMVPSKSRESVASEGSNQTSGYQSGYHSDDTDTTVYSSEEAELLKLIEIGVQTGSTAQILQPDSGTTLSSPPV

Cytochrome P450 1A2 = molecular target: T4, Cytochrome P450 1A2 (Homo sapiens, UniProt P05177); assay: as §1; type: ADME
T4 sequence (P05177 whole entry): T2 sequence (P05177 whole entry)

Cytochrome P450 2C19 = Cytochrome P450 2C19 (Homo sapiens, UniProt P33261); assay: Inhibition of CYP2C19 (unknown origin) using MFC substrate after 30 mins by fluorescence assay; type: ADME
Chain of Cytochrome P450 2C19 (P33261 whole entry): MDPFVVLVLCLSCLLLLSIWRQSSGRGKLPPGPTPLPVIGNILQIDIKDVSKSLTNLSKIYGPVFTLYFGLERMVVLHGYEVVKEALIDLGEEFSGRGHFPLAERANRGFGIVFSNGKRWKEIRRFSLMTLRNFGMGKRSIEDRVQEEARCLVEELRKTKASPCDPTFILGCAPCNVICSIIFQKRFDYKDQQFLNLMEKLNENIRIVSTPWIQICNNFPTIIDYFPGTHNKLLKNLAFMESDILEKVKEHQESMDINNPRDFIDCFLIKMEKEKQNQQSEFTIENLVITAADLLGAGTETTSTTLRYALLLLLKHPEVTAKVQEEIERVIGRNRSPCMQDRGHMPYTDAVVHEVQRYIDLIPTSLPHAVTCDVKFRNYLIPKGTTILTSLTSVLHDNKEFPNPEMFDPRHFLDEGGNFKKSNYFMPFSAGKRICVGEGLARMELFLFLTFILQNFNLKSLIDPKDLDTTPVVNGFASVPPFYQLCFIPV

[10] = molecular target: Serine/threonine-protein kinase PLK1 (Homo sapiens, UniProt P53350); assay: Inhibition of PLK1 (unknown origin) by FRET-based homogeneous assay
MDA-MB-231 = assay: Cytotoxicity against human MDA-MB-231 cells after 5 days by SRB assay; type: functional; conditions: MDA-MB-231, 120 h
[11] = molecular target: Serine/threonine-protein kinase PLK3 (Homo sapiens, UniProt Q9H4B4); assay: Inhibition of PLK3 (unknown origin) by FRET-based homogeneous assay
Chain of Serine/threonine-protein kinase PLK3 (Q9H4B4 whole entry): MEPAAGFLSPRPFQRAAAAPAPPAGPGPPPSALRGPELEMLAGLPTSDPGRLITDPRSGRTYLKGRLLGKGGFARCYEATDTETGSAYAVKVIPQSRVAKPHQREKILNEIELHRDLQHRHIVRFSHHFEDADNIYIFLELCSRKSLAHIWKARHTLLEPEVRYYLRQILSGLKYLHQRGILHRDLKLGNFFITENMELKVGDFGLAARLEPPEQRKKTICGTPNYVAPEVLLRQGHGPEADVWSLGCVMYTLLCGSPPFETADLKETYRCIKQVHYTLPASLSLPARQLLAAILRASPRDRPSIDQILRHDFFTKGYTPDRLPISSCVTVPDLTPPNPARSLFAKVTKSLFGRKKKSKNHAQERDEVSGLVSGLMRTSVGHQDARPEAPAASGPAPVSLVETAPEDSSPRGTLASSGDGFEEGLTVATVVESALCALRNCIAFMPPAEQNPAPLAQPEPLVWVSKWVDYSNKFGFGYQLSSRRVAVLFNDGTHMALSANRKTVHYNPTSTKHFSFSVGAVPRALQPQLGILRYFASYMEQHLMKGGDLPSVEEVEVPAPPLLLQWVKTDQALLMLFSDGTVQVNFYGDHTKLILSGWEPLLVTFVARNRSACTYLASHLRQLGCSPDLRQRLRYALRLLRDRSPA

[12] = Cytotoxicity against human SKBR3 cells after 5 days by SRB assay; type: functional; conditions: SK-BR-3, 120 h
[13] = molecular target: Serine/threonine-protein kinase PLK2 (Homo sapiens, UniProt Q9NYY3); assay: Inhibition of PLK2 (unknown origin) by FRET-based homogeneous assay
Chain of Serine/threonine-protein kinase PLK2 (Q9NYY3 whole entry): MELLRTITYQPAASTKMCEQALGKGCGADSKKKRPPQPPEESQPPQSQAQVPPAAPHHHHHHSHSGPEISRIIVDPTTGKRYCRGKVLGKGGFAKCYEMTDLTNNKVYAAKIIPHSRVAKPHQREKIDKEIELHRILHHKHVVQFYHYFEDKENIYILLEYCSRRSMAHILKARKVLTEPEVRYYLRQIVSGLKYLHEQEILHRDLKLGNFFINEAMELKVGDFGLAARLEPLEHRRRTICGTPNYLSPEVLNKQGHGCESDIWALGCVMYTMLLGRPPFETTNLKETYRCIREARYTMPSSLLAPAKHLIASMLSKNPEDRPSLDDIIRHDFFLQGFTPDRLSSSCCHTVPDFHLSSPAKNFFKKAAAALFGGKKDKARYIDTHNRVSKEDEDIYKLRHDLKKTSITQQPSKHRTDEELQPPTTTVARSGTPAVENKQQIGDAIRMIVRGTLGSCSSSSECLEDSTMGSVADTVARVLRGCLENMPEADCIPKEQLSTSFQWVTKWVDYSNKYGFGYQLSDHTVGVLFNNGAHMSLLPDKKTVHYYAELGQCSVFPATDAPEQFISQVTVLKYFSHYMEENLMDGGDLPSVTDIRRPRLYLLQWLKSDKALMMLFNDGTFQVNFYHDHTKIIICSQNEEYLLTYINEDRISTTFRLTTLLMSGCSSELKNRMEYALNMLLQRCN

[14] = AUC in SCID mouse at 25 mg/kg, po by LCMS/MS method; type: ADME, organism-based; set-up: dose 25 mg/kg, route oral; conditions: plasma
[15] = Cmax in SCID mouse at 25 mg/kg, po by LCMS/MS method; type: ADME, organism-based; set-up: dose 25 mg/kg, route oral; conditions: in vivo

Row | SMILES | GI50 (MCF7) [nM] | AUC at 8 h [1] [ng·h/mL] | IC50 (Cytochrome P450 3A4) [nM] | solubility [3] [µg/mL] | GI50 (MDA-MB-468) [nM] | half-life at 1 µM [4] [min] | half-life at 1 µM [5] [min] | Cmax [6] [ng/mL] | IC50 [7] [nM] | IC50 (Cytochrome P450 2C9) [nM] | fraction unbound [8] | IC50 (Cytochrome P450 2D6) [nM] | IC50 [9] [nM] | IC50 (Cytochrome P450 1A2) [nM] | IC50 (Cytochrome P450 2C19) [nM] | GI50 (MDA-MB-231) [nM] | GI50 [12] [nM] | AUC [14] [ng·h/mL] | Cmax [15] [ng/mL] | further results
1 | CN(C)Cc1ccc(/C=C/c2n[nH]c3cc(/C=C4/C(=O)Nc5ccccc54)ccc23)cc1 | 7 | 830 | 940 | < 0.1 | 12 | 40 | 7 | 870 | 35 | 1400 | 0.016 | – | – | – | – | – | – | – | – | IC50 [2]: 4 nM; IC50 at 15 min (CYP1A2): > 10000 nM
2 | O=C1Nc2ccccc2/C1=C/c1ccc2cn[nH]c2c1 | 5300 | 61 | 10000 | 0.7 (≈ 2.68 µM) | 4600 | 54 | 5 | 11 | 140 | 500 | < 0.001 | > 1000 | 2500 | 50 | 210 | – | – | – | – | –
3 | O=C1Nc2ccccc2[C@]12C[C@H]2c1ccc2cn[nH]c2c1 (relative stereo) | 16000 | 1620 | > 10000 | 8 (≈ 29.1 µM) | 14000 | > 60 | 49 | 1200 | 3200 | > 10000 | 0.17 | > 10000 | > 10000 | > 10000 | 10000 | – | – | – | – | –
4 | O=C1Nc2ccccc2[C@]12C[C@H]2c1ccc2c(/C=C/c3ccncc3)n[nH]c2c1 (relative stereo) | 600 | 2900 | > 1000 | 0.4 (≈ 1.06 µM) | 360 | > 60 | 18 | 1700 | 33 | 30 | 0.045 | 700 | 1300 | 1400 | 260 | 680 | 20300 | 650 | 470 | IC50 [10]: > 100000 nM; IC50 [11]: > 100000 nM; IC50 [13]: > 100000 nM
5 | COc1ccc2c(c1)[C@]1(C[C@H]1c1ccc3c(/C=C/c4ccc(N5CCN(C)CC5)nc4)n[nH]c3c1)C(=O)N2 (relative stereo) | 10 | 450 | 2100 | 0.19 (≈ 0.375 µM) | 6 | 16 | 9 | 200 | – | 1600 | – | > 10000 | 2000 | > 10000 | 1600 | 10 | 13400 | – | – | –
6 | CN1CCN(Cc2ccc(/C=C/c3n[nH]c4cc([C@@H]5C[C@@]56C(=O)Nc5ccccc56)ccc34)cc2)CC1 (relative stereo) | 10 | – | > 10000 | – | 10 | – | – | – | 120 | > 1000 | – | > 10000 | 120 | > 1000 | > 1000 | 2500 | 6000 | 580 | 190 | –
